{
  "source": "PubChem BioAssay (NCI)",
  "assay_in_all_cases": "DTP human tumour cell line panel, 48 h",
  "key": {"[1]": {"tested_on": "A549 NSCLC"}, "[2]": {"tested_on": "SF-295 CNS"}, "[3]": {"tested_on": "CAKI-1 renal"}, "[4]": {"tested_on": "UACC-257 melanoma"}, "[5]": {"tested_on": "SW-620 colon"}, "[6]": {"tested_on": "NCI-H460 lung"}, "[7]": {"tested_on": "BT-549 breast"}, "[8]": {"tested_on": "HOP-92 NSCLC"}, "[9]": {"tested_on": "HS 578T breast"}, "[10]": {"tested_on": "MDA-MB-231 breast"}},
  "note": "Several values for one entry are separate records, joined by “and”; a condition that tells them apart may be missing. Identical values can stand only once.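 Cultured in 96-well plates, cells were exposed to test compound for 48 hours across five concentrations. Here, GI50 denotes the concentration required for 50% inhibition of growth. TGI denotes the concentration required for complete inhibition of growth.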",
  "data": [
    {"compound": "c1ccc2c(c1)CCc1c(-c3ccncc3)n[nH]c1-2", "values": [
      {"measurement": "TGI", "setting": "[1]", "result": "> 100", "unit": "µM"},
      {"measurement": "TGI", "setting": "[2]", "result": "> 100", "unit": "µM"},
      {"measurement": "TGI", "setting": "[3]", "result": 73.4, "unit": "µM"},
      {"measurement": "TGI", "setting": "[4]", "result": 57.7, "unit": "µM"},
      {"measurement": "TGI", "setting": "[5]", "result": "> 100", "unit": "µM"},
      {"measurement": "TGI", "setting": "[6]", "result": "> 100", "unit": "µM"}
    ]},
    {"compound": "CO[C@@H]1CC[C@]2(C)OC[C@H](C)[C@@H]3C[C@@H](C)[C@@H](OC(C)=O)[C@@H]4[C@H]3[C@@H]2O[C@H]4C[C@@]1(C)O", "values": [
      {"measurement": "GI50", "setting": "[7]", "result": "> 100", "unit": "µM"},
      {"measurement": "TGI", "setting": "[7]", "result": "> 100", "unit": "µM"},
      {"measurement": "GI50", "setting": "[8]", "result": "> 100", "unit": "µM"},
      {"measurement": "TGI", "setting": "[8]", "result": "> 100", "unit": "µM"},
      {"measurement": "GI50", "setting": "[1]", "result": "> 100", "unit": "µM"},
      {"measurement": "TGI", "setting": "[1]", "result": "> 100", "unit": "µM"},
      {"measurement": "GI50", "setting": "[2]", "result": "> 100", "unit": "µM"},
      {"measurement": "TGI", "setting": "[2]", "result": "> 100", "unit": "µM"},
      {"measurement": "GI50", "setting": "[3]", "result": "> 100", "unit": "µM"},
      {"measurement": "TGI", "setting": "[3]", "result": "> 100", "unit": "µM"},
      {"measurement": "GI50", "setting": "[4]", "result": "> 100", "unit": "µM"},
      {"measurement": "TGI", "setting": "[4]", "result": "> 100", "unit": "µM"},
      {"measurement": "GI50", "setting": "[5]", "result": "> 100", "unit": "µM"},
      {"measurement": "TGI", "setting": "[5]", "result": "> 100", "unit": "µM"},
      {"measurement": "GI50", "setting": "[9]", "result": "> 100", "unit": "µM"},
      {"measurement": "TGI", "setting": "[9]", "result": "> 100", "unit": "µM"},
      {"measurement": "GI50", "setting": "[10]", "result": "> 100", "unit": "µM"},
      {"measurement": "TGI", "setting": "[10]", "result": "> 100", "unit": "µM"},
      {"measurement": "GI50", "setting": "[6]", "result": "> 100", "unit": "µM"},
      {"measurement": "TGI", "setting": "[6]", "result": "> 100", "unit": "µM"}
    ]},
    {"compound": "O=S(=O)(OI(OI(OS(=O)(=O)C(F)(F)F)c1ccccc1)c1ccccc1)C(F)(F)F", "values": [
      {"measurement": "TGI", "setting": "[1]", "result": "> 100", "unit": "µM"},
      {"measurement": "TGI", "setting": "[2]", "result": "> 100", "unit": "µM"},
      {"measurement": "TGI", "setting": "[3]", "result": "> 100", "unit": "µM"},
      {"measurement": "TGI", "setting": "[5]", "result": "> 100", "unit": "µM"},
      {"measurement": "TGI", "setting": "[6]", "result": "> 100", "unit": "µM"}
    ]},
    {"compound": "COc1cc(OC)c(OC)cc1/C=N/NC(=O)N/N=C/c1cc(OC)c(OC)cc1OC", "values": [
      {"measurement": "TGI", "setting": "[8]", "result": "> 100", "unit": "µM"},
      {"measurement": "TGI", "setting": "[1]", "result": "> 100", "unit": "µM"},
      {"measurement": "TGI", "setting": "[2]", "result": "> 100", "unit": "µM"},
      {"measurement": "TGI", "setting": "[4]", "result": "> 100", "unit": "µM"},
      {"measurement": "TGI", "setting": "[5]", "result": "> 100", "unit": "µM"},
      {"measurement": "TGI", "setting": "[6]", "result": "> 100", "unit": "µM"}
    ]},
    {"compound": "COC(=O)c1c(C)cc(OC)c(C/C=C(\\C)CCCc2coc(C=C(C)C)c2)c1OC", "values": [
      {"measurement": "TGI", "setting": "[7]", "result": "> 100", "unit": "µM"},
      {"measurement": "TGI", "setting": "[8]", "result": "> 100", "unit": "µM"},
      {"measurement": "TGI", "setting": "[1]", "result": "> 100", "unit": "µM"},
      {"measurement": "TGI", "setting": "[2]", "result": "> 100", "unit": "µM"},
      {"measurement": "TGI", "setting": "[3]", "result": "> 100", "unit": "µM"},
      {"measurement": "TGI", "setting": "[4]", "result": "> 100", "unit": "µM"},
      {"measurement": "TGI", "setting": "[5]", "result": "> 100", "unit": "µM"},
      {"measurement": "TGI", "setting": "[9]", "result": 79.7, "unit": "µM"},
      {"measurement": "TGI", "setting": "[10]", "result": "> 100", "unit": "µM"},
      {"measurement": "TGI", "setting": "[6]", "result": "> 100", "unit": "µM"}
    ]},
    {"compound": "COc1cc(C[P+](c2ccccc2)(c2ccccc2)c2ccccc2)cc(OC)c1OC", "values": [
      {"measurement": "TGI", "setting": "[8]", "result": "> 100", "unit": "µM"},
      {"measurement": "TGI", "setting": "[1]", "result": "> 100", "unit": "µM"},
      {"measurement": "TGI", "setting": "[2]", "result": "> 100", "unit": "µM"},
      {"measurement": "TGI", "setting": "[3]", "result": "> 100", "unit": "µM"},
      {"measurement": "TGI", "setting": "[4]", "result": "> 100", "unit": "µM"},
      {"measurement": "TGI", "setting": "[5]", "result": "> 100", "unit": "µM"},
      {"measurement": "TGI", "setting": "[6]", "result": "> 100", "unit": "µM"}
    ]},
    {"compound": "CCn1cc(-c2ccnc3[nH]c(-c4cccc(CN(C)C)c4)cc23)c(-c2ccc(NC(=O)N(C)C)cc2)n1", "values": [
      {"measurement": "GI50", "setting": "[7]", "result": "1.45 µM and 2.3 µM"},
      {"measurement": "TGI", "setting": "[7]", "result": "17.3 µM and > 10 µM"},
      {"measurement": "GI50", "setting": "[8]", "result": "0.338 µM and 0.294 µM"},
      {"measurement": "TGI", "setting": "[8]", "result": "5.2 µM and 2.99 µM"},
      {"measurement": "GI50", "setting": "[1]", "result": "0.238 µM and 0.747 µM"},
      {"measurement": "TGI", "setting": "[1]", "result": "16.1 µM and > 10 µM"},
      {"measurement": "GI50", "setting": "[2]", "result": "0.484 µM and 0.408 µM"},
      {"measurement": "TGI", "setting": "[2]", "result": "11.7 µM and > 10 µM"},
      {"measurement": "GI50", "setting": "[3]", "result": "3.36 µM and 1.17 µM"},
      {"measurement": "TGI", "setting": "[3]", "result": "18.9 µM and > 10 µM"},
      {"measurement": "GI50", "setting": "[4]", "result": "4.76 µM and > 10 µM"},
      {"measurement": "TGI", "setting": "[4]", "result": "21.7 µM and > 10 µM"},
      {"measurement": "GI50", "setting": "[5]", "result": "0.566 µM and 0.533 µM"},
      {"measurement": "TGI", "setting": "[5]", "result": "13.7 µM and > 10 µM"},
      {"measurement": "GI50", "setting": "[9]", "result": "1.52 µM and 1.2 µM"},
      {"measurement": "TGI", "setting": "[9]", "result": "9.99 µM and 6.9 µM"},
      {"measurement": "GI50", "setting": "[10]", "result": "3.52 µM and 2.95 µM"},
      {"measurement": "TGI", "setting": "[10]", "result": "19.8 µM and > 10 µM"},
      {"measurement": "GI50", "setting": "[6]", "result": "0.209 µM and 0.109 µM"},
      {"measurement": "TGI", "setting": "[6]", "result": "13.7 µM and > 10 µM"}
    ]},
    {"compound": "C=C(CN(C)Cc1ccccc1)c1ccc(NC(=O)c2ccc(C(=C)CN(C)Cc3ccccc3)cc2)cc1", "values": [
      {"measurement": "GI50", "setting": "[7]", "result": "> 100", "unit": "µM"},
      {"measurement": "TGI", "setting": "[7]", "result": "> 100", "unit": "µM"},
      {"measurement": "GI50", "setting": "[1]", "result": 77.8, "unit": "µM"},
      {"measurement": "TGI", "setting": "[1]", "result": "> 100", "unit": "µM"},
      {"measurement": "GI50", "setting": "[2]", "result": 71.4, "unit": "µM"},
      {"measurement": "TGI", "setting": "[2]", "result": "> 100", "unit": "µM"},
      {"measurement": "GI50", "setting": "[3]", "result": 53, "unit": "µM"},
      {"measurement": "TGI", "setting": "[3]", "result": "> 100", "unit": "µM"},
      {"measurement": "GI50", "setting": "[4]", "result": "> 100", "unit": "µM"},
      {"measurement": "TGI", "setting": "[4]", "result": "> 100", "unit": "µM"},
      {"measurement": "GI50", "setting": "[5]", "result": 96.7, "unit": "µM"},
      {"measurement": "TGI", "setting": "[5]", "result": "> 100", "unit": "µM"},
      {"measurement": "GI50", "setting": "[9]", "result": 40, "unit": "µM"},
      {"measurement": "TGI", "setting": "[9]", "result": "> 100", "unit": "µM"},
      {"measurement": "GI50", "setting": "[10]", "result": 54.9, "unit": "µM"},
      {"measurement": "TGI", "setting": "[10]", "result": "> 100", "unit": "µM"},
      {"measurement": "GI50", "setting": "[6]", "result": 97.3, "unit": "µM"},
      {"measurement": "TGI", "setting": "[6]", "result": "> 100", "unit": "µM"}
    ]},
    {"compound": "CC[C@@H]1NC(C(=O)OC)Cc2c1[nH]c1ccccc21", "note": "(some centres undefined)", "values": [
      {"measurement": "TGI", "setting": "[8]", "result": "> 100", "unit": "µM"},
      {"measurement": "TGI", "setting": "[1]", "result": "> 100", "unit": "µM"},
      {"measurement": "TGI", "setting": "[2]", "result": "> 100", "unit": "µM"},
      {"measurement": "TGI", "setting": "[3]", "result": "> 100", "unit": "µM"},
      {"measurement": "TGI", "setting": "[4]", "result": "> 100", "unit": "µM"},
      {"measurement": "TGI", "setting": "[5]", "result": "> 100", "unit": "µM"},
      {"measurement": "TGI", "setting": "[6]", "result": "> 100", "unit": "µM"}
    ]}
  ]
}
